Test system: QBC939/ADM
Assay: CCK-8 assay of cytotoxicity of targeted drugs with or without ginsenoside composition in drug-resistant cells
Format: cell-based, Human
Conditions: 24 h
Procedure: 1. Materials and Methods Human cholangiocarcinoma cell line QBC939, purchased from Shanghai Honshun Biological Technology Co., Ltd.
The human cholangiocarcinoma cell line QBC939 was thawed and inoculated into T25 cell culture flasks filled with cell culture medium, and QBC939/ADM was constructed by continuously increasing the contact concentration of ADM.
The cells were divided into a blank zeroed control group, a normal control group and 9 experimental groups, each containing 100 μL of 80 μg/mL ginsenoside composition for cell culturing.
The control group (chemotherapeutic drug group): 100 μL of culture medium containing chemotherapeutic drugs was added to each well. The chemotherapeutic drugs included the targeted drugs afatinib (400 μg/mL), ceritinib (1000 μg/mL) and erlotinib (200 μg/mL). Six replicate wells were set up for each drug.
The experimental group (chemotherapeutic drugs+traditional Chinese medicine): 100 μL of culture medium containing chemotherapeutic drugs+ginsenoside composition was added to each well, namely afatinib (400 μg/mL)+ginsenoside composition (80 μg/mL), ceritinib (1000 μg/mL)+ginsenoside composition (80 μg/mL), and erlotinib (200 μg/mL)+ginsenoside composition (80 μg/mL). Six replicate wells were set up for each drug.
The cytotoxic effects of the chemotherapeutic drugs were detected 24 h later.

SMILES: C#Cc1cccc(Nc2ncnc3cc(OCCOC)c(OCCOC)cc23)c1 [erlotinib]
- Absorbance value (OD, CCK-8), Erlotinib (control group: erlotinib 200 μg/mL alone): 1.294 ± 0.131

SMILES: Cc1cc(Nc2ncc(Cl)c(Nc3ccccc3S(=O)(=O)C(C)C)n2)c(OC(C)C)cc1C1CCNCC1 [ceritinib]
- Absorbance value (OD, CCK-8), Ceritinib (control group: ceritinib 1000 μg/mL alone): 1.304 ± 0.096

SMILES: CN(C)C/C=C/C(=O)Nc1cc2c(Nc3ccc(F)c(Cl)c3)ncnc2cc1O[C@H]1CCOC1 [afatinib]
- Absorbance value (OD, CCK-8), Afatinib (control group: afatinib 400 μg/mL alone): 1.179 ± 0.147
